Earlier results in article PMC3719006, “Safety, tolerability, pharmacokinetics, and pharmacodynamics of a long-acting release (LAR) formulation of pasireotide (SOM230) in patients with gastroenteropancreatic neuroendocrine tumors: results from a randomized, multicenter, open-label, phase I study” (Cancer Chemotherapy and Pharmacology, 2013).

Columns and labels:
[1] = native somatostatin
Procedure: Somatostatin inhibits hormone release and cell growth through binding to specific, cell surface, G-protein–coupled receptors, of which five distinct subtypes (sst1–5) have been characterized. In pancreatic and gastrointestinal endocrine tumors, sst2 expression predominates, although multiple other subtypes have also been found. The limited clinical use of native somatostatin, because of its very short half-life (<3 min) and the impact of rebound hypersecretion, has necessitated the development of more clinically useful analogs. Development of the somatostatin an ...

[2] = SC formulation
[3] = test system: somatostatin receptor subtypes (sst1–3,5); design: method as in PMID 17977644; details: four of the five somatostatin receptor subtypes
[4] = test system: sst2 receptor
From the text: (§1) Somatostatin inhibits hormone release and cell growth through binding to specific, cell surface, G-protein–coupled receptors, of which five distinct subtypes (sst1–5) have been characterized. In pancreatic and gastrointestinal endocrine tumors, sst2 expression predominates, although multiple other subtypes have also been found. […] Development of the somatostatin an ...

[5] = test system: sst5 receptor
From the text: as §1

somatostatin: native hormone that inhibits hormone release and cell growth via sst1–5
half-life [1]: < 3 min

pasireotide
PK exposure difference between patients with GEP NET and healthy volunteers [2]: twofold
binding affinity [3]: binds with high affinity

octreotide
binding affinity [4]: binds with high affinity
binding affinity [5]: lower binding affinity
